Assay results published in US12077503B2, “Substituted cyclic amides and their use as herbicides” (FMC CORPORATION, priority 2015, dated 2024).

Legend:
Type in all cases: in vivo
[1] = system: barnyardgrass (Echinochloa crus-galli); assay: Test A postemergence; details: Echinochloa crus-galli, post-emergence, 240 h, 125 g ai/ha, postemergence, visual injury rating after approximately 10 d; read-out: Barnyardgrass plant response rating (0 to 100 scale, 0 no effect, 100 complete control)
Procedure, shortened: (§1)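 Each rating is a visual injury score from 0 to 100 given about 10 d after treatment, judged against untreated controls kept alongside in the greenhouse. In loam soil–sand blend, seeds got a preemergence directed soil spray, while postemergence plants were 2 to 10 cm tall at spraying.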

[2] = system: ryegrass, Italian (Italian ryegrass, Lolium multiflorum); assay: Test A postemergence; details: Lolium multiflorum, post-emergence, 240 h, 125 g ai/ha, postemergence, visual injury rating after approximately 10 d; read-out: Ryegrass, Italian plant response rating (0 to 100 scale, 0 no effect, 100 complete control)
Procedure, shortened: as §1

[3] = system: ragweed (common ragweed, Ambrosia elatior); assay: Test A postemergence; details: Ambrosia artemisiifolia, post-emergence, 240 h, 125 g ai/ha, postemergence, visual injury rating after approximately 10 d; read-out: Ragweed plant response rating (0 to 100 scale, 0 no effect, 100 complete control)
Procedure, shortened: as §1

[4] = system: wheat (Triticum aestivum); assay: Test A postemergence; details: Triticum aestivum, post-emergence, 240 h, 125 g ai/ha, postemergence, visual injury rating after approximately 10 d; read-out: Wheat plant response rating (0 to 100 scale, 0 no effect, 100 complete control)
Procedure, shortened: as §1

corn (Zea mays) = assay: Test A postemergence; details: Zea mays, post-emergence, 240 h, 125 g ai/ha, postemergence, visual injury rating after approximately 10 d; read-out: Corn plant response rating (0 to 100 scale, 0 no effect, 100 complete control)
Procedure, shortened: as §1

Kochia (Kochia scoparia) [5] = assay: Test A postemergence; details: Bassia scoparia, post-emergence, 240 h, 125 g ai/ha, postemergence, visual injury rating after approximately 10 d; read-out: Kochia plant response rating (0 to 100 scale, 0 no effect, 100 complete control)
Procedure, shortened: as §1

[6] = system: Galium (catchweed bedstraw, Galium aparine); assay: Test A postemergence; details: Galium, post-emergence, 240 h, 125 g ai/ha, postemergence, visual injury rating after approximately 10 d; read-out: Galium plant response rating (0 to 100 scale, 0 no effect, 100 complete control)
Procedure, shortened: as §1

[7] = system: giant foxtail (Setaria faberii); assay: Test A postemergence; details: Setaria faberi, post-emergence, 240 h, 125 g ai/ha, postemergence, visual injury rating after approximately 10 d; read-out: Foxtail, Giant plant response rating (0 to 100 scale, 0 no effect, 100 complete control)
Procedure, shortened: as §1

[8] = system: pigweed (Amaranthus retroflexus); assay: Test A postemergence; details: Amaranthus retroflexus, post-emergence, 240 h, 125 g ai/ha, postemergence, visual injury rating after approximately 10 d; read-out: Pigweed plant response rating (0 to 100 scale, 0 no effect, 100 complete control)
Procedure, shortened: as §1

[9] = system: blackgrass (Alopecurus myosuroides); assay: Test A postemergence; details: Alopecurus myosuroides, post-emergence, 240 h, 125 g ai/ha, postemergence, visual injury rating after approximately 10 d; read-out: Blackgrass plant response rating (0 to 100 scale, 0 no effect, 100 complete control)
Procedure, shortened: as §1

[10] = system: barnyardgrass (Echinochloa crus-galli); assay: Test A preemergence; details: Echinochloa crus-galli, pre-emergence, 240 h; for pest or weed control at 125 g/ha: 125 g ai/ha, preemergence, 0 to 100 scale where 0 is no effect and 100 is complete control, read-out: Barnyardgrass plant response rating; for pest or weed control at 500 g/ha: 500 g ai/ha, Preemergence, visual injury vs untreated controls after approximately 10 d, read-out: Barnyardgrass plant response rating (0 to 100 scale where 0 is no effect and 100 is complete control)
Procedure, shortened: as §1

[11] = system: ryegrass, Italian (Italian ryegrass, Lolium multiflorum); assay: Test A preemergence; details: Lolium multiflorum, pre-emergence, 240 h; for pest or weed control at 125 g/ha: 125 g ai/ha, preemergence, 0 to 100 scale where 0 is no effect and 100 is complete control, read-out: Ryegrass, Italian plant response rating; for pest or weed control at 500 g/ha: 500 g ai/ha, Preemergence, visual injury vs untreated controls after approximately 10 d, read-out: Ryegrass, Italian plant response rating (0 to 100 scale where 0 is no effect and 100 is complete control)
Procedure, shortened: as §1

[12] = system: ragweed (common ragweed, Ambrosia elatior); assay: Test A preemergence; details: Ambrosia artemisiifolia, pre-emergence, 240 h; for pest or weed control at 125 g/ha: 125 g ai/ha, preemergence, 0 to 100 scale where 0 is no effect and 100 is complete control, read-out: Ragweed plant response rating; for pest or weed control at 500 g/ha: 500 g ai/ha, Preemergence, visual injury vs untreated controls after approximately 10 d, read-out: Ragweed plant response rating (0 to 100 scale where 0 is no effect and 100 is complete control)
Procedure, shortened: as §1

Kochia (Kochia scoparia) [13] = assay: Test A preemergence; details: Bassia scoparia, pre-emergence, 240 h; for pest or weed control at 125 g/ha: 125 g ai/ha, preemergence, 0 to 100 scale where 0 is no effect and 100 is complete control, read-out: Kochia plant response rating; for pest or weed control at 500 g/ha: 500 g ai/ha, Preemergence, visual injury vs untreated controls after approximately 10 d, read-out: Kochia plant response rating (0 to 100 scale where 0 is no effect and 100 is complete control)
Procedure, shortened: as §1

[14] = system: giant foxtail (Setaria faberii); assay: Test A preemergence; details: Setaria faberi, pre-emergence, 240 h; for pest or weed control at 125 g/ha: 125 g ai/ha, preemergence, 0 to 100 scale where 0 is no effect and 100 is complete control, read-out: Foxtail, Giant plant response rating; for pest or weed control at 500 g/ha: 500 g ai/ha, Preemergence, visual injury vs untreated controls after approximately 10 d, read-out: Foxtail, Giant plant response rating (0 to 100 scale where 0 is no effect and 100 is complete control)
Procedure, shortened: as §1

[15] = system: pigweed (Amaranthus retroflexus); assay: Test A preemergence; details: Amaranthus retroflexus, pre-emergence, 240 h; for pest or weed control at 125 g/ha: 125 g ai/ha, preemergence, 0 to 100 scale where 0 is no effect and 100 is complete control, read-out: Pigweed plant response rating; for pest or weed control at 500 g/ha: 500 g ai/ha, Preemergence, visual injury vs untreated controls after approximately 10 d, read-out: Pigweed plant response rating (0 to 100 scale where 0 is no effect and 100 is complete control)

COc1c(F)ccc([C@H]2CNC(=O)[C@@H]2C(=O)Nc2ccccc2F)c1Cl [Compound 881]
30%: pest or weed control at 125 g/ha [2] | pest or weed control at 125 g/ha (Kochia (Kochia scoparia) [5]) | pest or weed control at 125 g/ha [11] | pest or weed control at 125 g/ha (Kochia (Kochia scoparia) [13])
60%: pest or weed control at 500 g/ha [11] | pest or weed control at 500 g/ha (Kochia (Kochia scoparia) [13])
80%: pest or weed control at 125 g/ha [7] | pest or weed control at 125 g/ha [10] | pest or weed control at 125 g/ha [14]
0%: pest or weed control at 125 g/ha [3] | plant injury at 125 g/ha [4] | plant injury at 125 g/ha (corn (Zea mays)) | pest or weed control at 125 g/ha [6] | pest or weed control at 125 g/ha [8] | pest or weed control at 125 g/ha [9] | pest or weed control at 125 g/ha [12] | pest or weed control at 500 g/ha [12] | pest or weed control at 125 g/ha [15] | pest or weed control at 500 g/ha [15]
90%: pest or weed control at 125 g/ha [1] | pest or weed control at 500 g/ha [10] | pest or weed control at 500 g/ha [14]

O=C1NC[C@H](c2ccc3c(c2)CCO3)[C@H]1C(=O)Nc1ccc(F)cc1F [Compound 902]
20%: pest or weed control at 500 g/ha [11]
0%: pest or weed control at 125 g/ha [2] | pest or weed control at 125 g/ha [3] | plant injury at 125 g/ha [4] | plant injury at 125 g/ha (corn (Zea mays)) | pest or weed control at 125 g/ha (Kochia (Kochia scoparia) [5]) | pest or weed control at 125 g/ha [6] | pest or weed control at 125 g/ha [8] | pest or weed control at 125 g/ha [9] | pest or weed control at 125 g/ha [11] | pest or weed control at 125 g/ha [12] | pest or weed control at 500 g/ha [12] | pest or weed control at 125 g/ha (Kochia (Kochia scoparia) [13]) | pest or weed control at 500 g/ha (Kochia (Kochia scoparia) [13]) | pest or weed control at 125 g/ha [15] | pest or weed control at 500 g/ha [15]
60%: pest or weed control at 125 g/ha [1]
30%: pest or weed control at 125 g/ha [7] | pest or weed control at 125 g/ha [14]
40%: pest or weed control at 125 g/ha [10]
90%: pest or weed control at 500 g/ha [10] | pest or weed control at 500 g/ha [14]

CN1C[C@H](c2cccc(COC(F)F)c2)[C@@H](C(=O)Nc2ccccc2S(C)(=O)=O)C1=O [Compound 877]
90%: pest or weed control at 125 g/ha [10] | pest or weed control at 125 g/ha [14] | pest or weed control at 500 g/ha [14]
0%: pest or weed control at 125 g/ha [3] | plant injury at 125 g/ha (corn (Zea mays)) | pest or weed control at 125 g/ha [8] | pest or weed control at 125 g/ha [9] | pest or weed control at 125 g/ha [11] | pest or weed control at 125 g/ha [12] | pest or weed control at 125 g/ha [15] | pest or weed control at 500 g/ha [15]
60%: pest or weed control at 125 g/ha [1] | pest or weed control at 500 g/ha [12] | pest or weed control at 125 g/ha (Kochia (Kochia scoparia) [13])
80%: pest or weed control at 500 g/ha (Kochia (Kochia scoparia) [13])
20%: pest or weed control at 125 g/ha [2] | pest or weed control at 125 g/ha (Kochia (Kochia scoparia) [5]) | pest or weed control at 125 g/ha [6] | pest or weed control at 500 g/ha [11]
70%: pest or weed control at 125 g/ha [7]
100%: pest or weed control at 500 g/ha [10]
30%: plant injury at 125 g/ha [4]

CN1C[C@H](c2cc(F)cc(F)c2)[C@@H](C(=O)Nc2ncc(C(F)(F)F)cc2F)C1=O [Compound 868]
30%: pest or weed control at 125 g/ha [10]
0%: pest or weed control at 125 g/ha [2] | pest or weed control at 125 g/ha [3] | plant injury at 125 g/ha [4] | plant injury at 125 g/ha (corn (Zea mays)) | pest or weed control at 125 g/ha (Kochia (Kochia scoparia) [5]) | pest or weed control at 125 g/ha [6] | pest or weed control at 125 g/ha [7] | pest or weed control at 125 g/ha [8] | pest or weed control at 125 g/ha [9] | pest or weed control at 125 g/ha [11] | pest or weed control at 500 g/ha [11] | pest or weed control at 125 g/ha [12] | pest or weed control at 500 g/ha [12] | pest or weed control at 125 g/ha (Kochia (Kochia scoparia) [13]) | pest or weed control at 500 g/ha (Kochia (Kochia scoparia) [13]) | pest or weed control at 125 g/ha [15] | pest or weed control at 500 g/ha [15]
20%: pest or weed control at 125 g/ha [1] | pest or weed control at 125 g/ha [14]
60%: pest or weed control at 500 g/ha [10] | pest or weed control at 500 g/ha [14]
